One assay has as its system H727 cells. As to the kind of experiment: Inhibition of KRas-mediated phosphorylation of ERK (Cisbio HTRF pERK), H727 cells. It counts as cell-based. As to conditions: Homo sapiens; for IC50: NCI-H727, 3 h, 3 hr compound incubation.
A further assay has as its target KRas G12D (Homo sapiens, UniProt P01116, G12D). As to the kind of experiment: biochemical. As to conditions: Binding to KRas (IC50 nM) G12D, TR-FRET displacement, KRas G12D. (In TR-FRET formats the signal depends on donor and acceptor labels being close together.)
The next assay relates to A549 cells. As to the kind of experiment: Inhibition of KRas-mediated phosphorylation of ERK (Cisbio HTRF pERK), A549 cells. It counts as cell-based. Conditions: Homo sapiens; for IC50: A549, 3 h, 3 hr compound incubation.
In a further assay the target is KRas G12V (Homo sapiens, UniProt P01116, G12V). The experiment in a line: biochemical. Conditions: Binding to KRas (IC50 nM) G12V, TR-FRET displacement, KRas G12V.
Chain of KRas G12V (P01116 1-169 isoform P01116-2 G12V): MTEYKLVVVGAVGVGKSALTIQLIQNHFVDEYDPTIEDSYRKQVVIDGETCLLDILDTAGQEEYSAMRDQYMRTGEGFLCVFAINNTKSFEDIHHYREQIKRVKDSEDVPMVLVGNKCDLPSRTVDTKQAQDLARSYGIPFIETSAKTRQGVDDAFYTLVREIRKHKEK
In the next assay the target is KRas G12S (Homo sapiens, UniProt P01116, G12S). It counts as binding. Conditions: TR-FRET displacement, read-out: Binding to KRas (IC50 nM) G12S.
Chain of KRas G12S (P01116 1-169 isoform P01116-2 G12S): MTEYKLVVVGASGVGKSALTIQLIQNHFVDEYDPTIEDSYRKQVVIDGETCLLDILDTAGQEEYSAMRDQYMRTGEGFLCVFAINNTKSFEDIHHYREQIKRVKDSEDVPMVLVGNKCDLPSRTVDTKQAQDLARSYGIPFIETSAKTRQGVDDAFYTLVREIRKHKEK
Another assay relates to HCT116 cells. As to the kind of experiment: Inhibition of KRas-mediated phosphorylation of ERK (Cisbio HTRF pERK), HCT116 cells. In kind it is cell-based. Conditions: Homo sapiens; for IC50: HCT-116, 3 h, 3 hr compound incubation.
The next assay relates to H460 cells. The experiment in a line: Inhibition of KRas-mediated phosphorylation of ERK (Cisbio HTRF pERK), H460 cells. As to conditions: Homo sapiens; for IC50: NCI-H460, 3 h, 3 hr compound incubation. In kind it is cell-based.
A further assay deals with H358 cells. As to the kind of experiment: Inhibition of KRas-mediated phosphorylation of ERK (Cisbio HTRF pERK), H358 cells. It counts as cell-based. Conditions: Homo sapiens; for IC50: NCI-H358, 3 h, 3 hr compound incubation.
Another assay deals with KRas G12C (Homo sapiens, UniProt P01116, G12C). It counts as binding. Conditions: TR-FRET displacement, read-out: Binding to KRas (IC50 nM) G12C.
Chain of KRas G12C (P01116 1-169 isoform P01116-2 G12C): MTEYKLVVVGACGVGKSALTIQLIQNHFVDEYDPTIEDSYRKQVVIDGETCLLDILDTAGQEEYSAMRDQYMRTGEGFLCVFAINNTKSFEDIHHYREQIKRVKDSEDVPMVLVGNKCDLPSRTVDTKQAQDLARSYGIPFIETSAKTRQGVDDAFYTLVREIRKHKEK
The next assay deals with KRas WT (Homo sapiens, UniProt P01116). The experiment in a line: KRas binding assay (TR-FRET displacement), KRas WT. Conditions: TR-FRET displacement.
Chain of KRas WT (P01116 1-169 isoform P01116-2): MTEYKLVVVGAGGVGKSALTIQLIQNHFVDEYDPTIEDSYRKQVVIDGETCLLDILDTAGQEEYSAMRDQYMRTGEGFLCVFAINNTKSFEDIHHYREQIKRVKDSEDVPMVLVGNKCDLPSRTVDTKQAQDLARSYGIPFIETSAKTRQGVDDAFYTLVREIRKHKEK
Another assay deals with ASPC1 cells. The experiment in a line: Inhibition of KRas-mediated phosphorylation of ERK (Cisbio HTRF pERK), ASPC1 cells. In kind it is cell-based. As to conditions: Homo sapiens, AsPC-1 cells; for IC50: ASPC1, 3 h, 3 hr compound incubation.
A further assay deals with KRas G12R (Homo sapiens, UniProt P01116, G12R). The experiment in a line: biochemical. As to conditions: Binding to KRas (IC50 nM) G12R, TR-FRET displacement, KRas G12R.
Chain of KRas G12R (P01116 1-169 isoform P01116-2 G12R): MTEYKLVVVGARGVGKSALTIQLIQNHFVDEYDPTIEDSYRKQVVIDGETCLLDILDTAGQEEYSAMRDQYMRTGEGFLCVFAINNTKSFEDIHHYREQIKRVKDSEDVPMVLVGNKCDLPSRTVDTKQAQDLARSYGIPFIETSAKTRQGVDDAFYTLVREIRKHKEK
Another assay has as its target KRas G13D (Homo sapiens, UniProt P01116, G13D). It counts as binding. Conditions: TR-FRET displacement, read-out: Binding to KRas (IC50 nM) G13D.
The next assay addresses KRas Q61H (Homo sapiens, UniProt P01116, Q61H). As to the kind of experiment: KRas binding assay (TR-FRET displacement), KRas Q61H. As to conditions: TR-FRET displacement.
The next assay concerns the target KRas G12A (Homo sapiens, UniProt P01116, G12A). It counts as binding. As to conditions: TR-FRET displacement, read-out: Binding to KRas (IC50 nM) G12A.

Structures are written as SMILES.

Chain of KRas Q61H (P01116 1-169 isoform P01116-2 Q61H): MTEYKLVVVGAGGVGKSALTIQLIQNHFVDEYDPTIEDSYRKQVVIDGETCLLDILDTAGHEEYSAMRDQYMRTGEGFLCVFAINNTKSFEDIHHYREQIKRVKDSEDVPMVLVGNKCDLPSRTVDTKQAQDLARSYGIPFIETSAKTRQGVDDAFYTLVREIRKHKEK
Chain of KRas G13D (P01116 1-169 isoform P01116-2 G13D): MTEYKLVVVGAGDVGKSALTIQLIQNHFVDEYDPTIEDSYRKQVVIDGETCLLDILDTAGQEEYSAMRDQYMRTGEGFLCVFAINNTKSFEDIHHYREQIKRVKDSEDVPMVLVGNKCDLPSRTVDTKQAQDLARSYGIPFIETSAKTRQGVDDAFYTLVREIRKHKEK
Chain of KRas G12A (P01116 1-169 isoform P01116-2 G12A): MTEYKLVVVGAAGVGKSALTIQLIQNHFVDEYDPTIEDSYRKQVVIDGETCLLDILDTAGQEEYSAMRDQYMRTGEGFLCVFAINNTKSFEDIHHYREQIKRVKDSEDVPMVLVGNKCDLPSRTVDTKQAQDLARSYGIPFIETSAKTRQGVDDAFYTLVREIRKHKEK
Chain of KRas G12D (P01116 1-169 isoform P01116-2 G12D): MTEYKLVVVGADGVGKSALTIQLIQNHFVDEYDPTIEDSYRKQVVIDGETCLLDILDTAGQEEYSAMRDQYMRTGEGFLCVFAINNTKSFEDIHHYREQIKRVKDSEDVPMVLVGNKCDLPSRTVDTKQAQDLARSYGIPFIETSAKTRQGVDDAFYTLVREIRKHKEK

Regarding `C[C@@H]1C[C@@H]1c1c(Cl)cc(O)cc1N1CCc2c(nc(OC[C@@]34CCCN3C[C@H](F)C4)nc2N2CCC[C@@](C)(O)C2)C1` (stereo in doubt) [Example 655, (R)-1-(7-(3-chloro-5-hydroxy-2-(cis-2-methylcyclopropyl)phenyl)-2-(((2R,7aS)-2-fluorotetrahydro-1H-pyrrolizin-7a(5H)-yl)methoxy)-5,6,7,8-tetrahydropyrido[3,4-d]pyrimidin-4-yl)-3-methylpiperidin-3-ol], the concentration for half-maximal inhibition (IC50) was 525 nM with H727 cells; 5 nM at KRas G12D; 359 nM in the assay with A549 cells; 4 nM on KRas G12V; 5 nM on KRas G12S; 926 nM with HCT116 cells. The IC50 in the assay on H460 cells stood at 237 nM; with H358 cells it was 189 nM; at KRas G12C it was 4 nM; at KRas WT it was 5 nM; in the assay with ASPC1 cells it was 247 nM.

Regarding `CCc1c(F)ccc2cc(O)cc(N3CCc4c(nc(OC[C@@]56CCCN5C[C@H](F)C6)nc4N4CCCn5nc(C(=O)N6CC7CC6CN7)cc5C4)C3)c12` (stereo partly drawn) [Example 502, 2,5-diazabicyclo[2.2.1]heptan-2-yl(5-(7-(8-ethyl-7-fluoro-3-hydroxynaphthalen-1-yl)-2-(((2R,7aS)-2-fluorohexahydro-1H-pyrrolizin-7a-yl)methoxy)-5,6,7,8-tetrahydropyrido[3,4-d]pyrimidin-4-yl)-5,6,7,8-tetrahydro-4H-pyrazolo[1,5-a][1,4]diazepin-2-yl)methanone], the IC50 in the assay with H727 cells (Cisbio pERK HTRF) is 1310 nM; on KRas G12D it was under 2 nM; on KRas G12V it was under 2 nM; on KRas G12R, 3 nM; with ASPC1 cells (Cisbio pERK HTRF) it was 124 nM. In addition, the inhibition at 0.1 µM turned out to be 7% with H727 cells (NCI-H727, single point at 100 nM, 3 hrs compound incubation); 11% in the assay with A549 cells (single point at 100 nM, 3 hrs compound incubation); 8% in the assay with HCT116 cells (HCT-116, single point at 100 nM, 3 hrs compound incubation); 7% in the assay on H460 cells (NCI-H460, single point at 100 nM, 3 hrs compound incubation); 5% in the assay with H358 cells (NCI-H358, single point at 100 nM, 3 hrs compound incubation); 22% in the assay on ASPC1 cells (ASPC1, single point at 100 nM, 3 hrs compound incubation).

For the compound `CCc1cccc2cccc(N3CCc4c(nc(OCC5(CN(C)C)CC5)nc4N4CCCC(c5nnc[nH]5)C4)C3)c12` (stereo not drawn) [Example 514, 1-(1-(((4-(3-(4H-1,2,4-triazol-3-yl)piperidin-1-yl)-7-(8-ethylnaphthalen-1-yl)-5,6,7,8-tetrahydropyrido[3,4-d]pyrimidin-2-yl)oxy)methyl)cyclopropyl)-N,N-dimethylmethanamine], the IC50 at KRas G13D is 372 nM; on KRas G12D it was 3220 nM; at KRas G12V, 1570 nM; at KRas Q61H, 389 nM; on KRas G12S, 318 nM; on KRas G12C, 286 nM. Besides, the values for the IC50 on KRas G12A and on KRas WT were 296 nM and 252 nM, respectively.

For `CCc1cccc2cccc(N3CCc4c(nc(OCC5(CN(C)C)CC5)nc4N4CCCOC(CCO)C4)C3)c12` (stereo not drawn) [Example 515, 2-(4-(2-((1-((dimethylamino)methyl)cyclopropyl)methoxy)-7-(8-ethylnaphthalen-1-yl)-5,6,7,8-tetrahydropyrido[3,4-d]pyrimidin-4-yl)-1,4-oxazepan-2-yl)ethan-1-ol], the half-inhibitory concentration (IC50) at KRas G13D was found to be 988 nM; on KRas G12D, 298 nM; on KRas G12V, 346 nM; on KRas Q61H, 877 nM; on KRas G12S it was 725 nM; at KRas G12C it was 373 nM. In addition, the IC50 at KRas G12A is 656 nM; on KRas WT, 622 nM.

`CCc1cccc2cccc(N3CCc4c(nc(OCC5(CN(C)C)CC5)nc4N4CC(C)CC(CO)C4)C3)c12` (stereo not drawn) [Example 516, (1-(2-((1-((dimethylamino)methyl)cyclopropyl)methoxy)-7-(8-ethylnaphthalen-1-yl)-5,6,7,8-tetrahydropyrido[3,4-d]pyrimidin-4-yl)-5-methylpiperidin-3-yl)methanol]: the IC50 on KRas G13D worked out at 3180 nM; on KRas G12D it was 1230 nM; at KRas G12V, 1150 nM; on KRas Q61H, 2530 nM; at KRas G12S, 1560 nM; at KRas G12C, 1030 nM. In addition, the IC50 came to 1490 nM at KRas G12A and 2650 nM on KRas WT.

For `CCc1cccc2cccc(N3CCc4c(nc(OCC5(CN(C)C)CC5)nc4N4CCn5nnc(CO)c5C4)C3)c12` [Example 517, (5-(2-((1-((dimethylamino)methyl)cyclopropyl)methoxy)-7-(8-ethylnaphthalen-1-yl)-5,6,7,8-tetrahydropyrido[3,4-d]pyrimidin-4-yl)-4,5,6,7-tetrahydro-[1,2,3]triazolo[1,5-a]pyrazin-3-yl)methanol], the IC50 at KRas G13D came out at 15300 nM; at KRas G12D it was 1260 nM; on KRas G12V, 3100 nM; at KRas Q61H it was 11500 nM; on KRas G12S, 6620 nM; on KRas G12C it was 4470 nM. The IC50 at KRas G12A turned out to be 7190 nM; at KRas WT, 9330 nM.

On to `CCc1c(F)ccc2cc(O)cc(N3CCc4c(nc(OCC5(CN(C)C)CC5)nc4N4CCOC(c5n[nH]c(CO)n5)C4)C3)c12` (stereo not drawn) [Example 602, 4-(2-((1-((dimethylamino)methyl)cyclopropyl)methoxy)-4-(2-(5-(hydroxymethyl)-1H-1,2,4-triazol-3-yl)morpholino)-5,8-dihydropyrido[3,4-d]pyrimidin-7(6H)-yl)-5-ethyl-6-fluoronaphthalen-2-ol], for which the IC50 in the assay with H727 cells (Cisbio pERK HTRF) was over 10000 nM; on KRas G12D, 44 nM; in the assay on A549 cells (Cisbio pERK HTRF), over 10000 nM; on KRas G12V, 6 nM; in the assay with HCT116 cells (Cisbio pERK HTRF) it was over 10000 nM; in the assay on H460 cells (Cisbio pERK HTRF), 7580 nM. Further, the IC50 was 907 nM in the assay with H358 cells (Cisbio pERK HTRF), 3 nM at KRas G12R and over 10000 nM with ASPC1 cells (Cisbio pERK HTRF).

`CCc1c(F)ccc2cc(O)cc(N3CCc4c(nc(OC[C@@]56CCCN5C[C@H](F)C6)nc4N4CCCN(CC(F)(F)F)CC4)C3)c12` [Example 649, 5-ethyl-6-fluoro-4-(2-(((2R,7aS)-2-fluorotetrahydro-1H-pyrrolizin-7a(5H)-yl)methoxy)-4-(4-(2,2,2-trifluoroethyl)-1,4-diazepan-1-yl)-5,8-dihydropyrido[3,4-d]pyrimidin-7(6H)-yl)naphthalen-2-ol]: the IC50 was 3710 nM with H727 cells; 124 nM at KRas G12D; 3100 nM with A549 cells; 29 nM at KRas G12V; over 10000 nM with HCT116 cells; 2440 nM with H460 cells. Moreover, the IC50 in the assay with H358 cells came out at 1100 nM; on KRas G12R it was 34 nM; in the assay on ASPC1 cells it was 6520 nM.

In the case of `CN(C)C(=O)c1cc2n(n1)CCCN(c1nc(OC[C@@]34CCCN3C[C@H](F)C4)nc3c1CCN(c1ccc(F)c4sc(N)c(C#N)c14)C3)C2` [Example 709, 5-(7-(2-amino-3-cyano-7-fluorobenzo[b]thiophen-4-yl)-2-(((2R,7aS)-2-fluorotetrahydro-1H-pyrrolizin-7a(5H)-yl)methoxy)-5,6,7,8-tetrahydropyrido[3,4-d]pyrimidin-4-yl)-N,N-dimethyl-5,6,7,8-tetrahydro-4H-pyrazolo[1,5-a][1,4]diazepine-2-carboxamide], the IC50 in the assay with H727 cells came out at 4720 nM; at KRas G12D, 17 nM; in the assay on A549 cells, 8710 nM; at KRas G12V it was 31 nM; at KRas G12S, 83 nM; with H358 cells, 1250 nM. Further, the IC50 at KRas G12C was 72 nM; on KRas WT it was 95 nM; in the assay with ASPC1 cells it was 4290 nM.

As usually defined, the IC50 is the concentration at which inhibition is half-maximal. What is called inhibition is the share of the control response that was lost under treatment. A low value points to a response near the control.

The values above are taken from patent publication US20250368649A1, “TETRAHYDROPYRIDOPYRIMIDINE PAN-KRAS INHIBITORS” (Mirati Therapeutics, Inc., priority 2022, published 2025).
